Key:
[1] = target: T1, histamine H2-receptors (Cavia porcellus, UniProt P47747); assay: Histamine H2-receptor antagonism, isolated guinea pig right atria; conditions: for Histamine ED50 after test compound / Concentration-Response Curve Displacement Factor: test compound 3 × 10^-5 M; for Histamine ED50 after test compound: 30 minute incubation, 95% limits: cimetidine 3.9-5.9 (N=8), Compound XII 3.10-5.98 (N=2), BL-5949 12.50-15.90 (N=5); for Concentration-Response Curve Displacement Factor: displacement of histamine curve to the right
T1 construct: The spontaneously beating right atrium was dissected free from other tissues; from tissue; host or cells: isolated right atrium of male Hartley guinea pigs
T1 sequence (P47747 whole entry): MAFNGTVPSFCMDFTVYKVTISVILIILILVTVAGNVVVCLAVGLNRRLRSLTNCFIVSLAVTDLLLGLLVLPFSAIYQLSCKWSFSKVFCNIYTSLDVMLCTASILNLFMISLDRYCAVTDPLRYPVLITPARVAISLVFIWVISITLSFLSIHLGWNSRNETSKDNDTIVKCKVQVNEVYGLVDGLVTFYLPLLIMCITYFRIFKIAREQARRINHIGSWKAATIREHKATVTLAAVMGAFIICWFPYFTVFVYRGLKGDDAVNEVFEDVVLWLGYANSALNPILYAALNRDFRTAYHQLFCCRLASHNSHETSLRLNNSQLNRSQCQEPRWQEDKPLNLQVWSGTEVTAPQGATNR
Experimental: Subsequent investigations by Hughes and Coret, Proc. Soc. […] Black et al., Agents and Actions, 3, 133 (1973) and Brimblecombe et al., Fed. […] The present comparative studies were carried out using a modification of the procedure reported by Reinhardt et al., Agents and Actions, 4, 217 (1974).
Male Hartley strain guinea pigs (350-450 gm.) were sacrificed by a blow on the head. The heart was excised and placed in a Petri dish of oxygenated (95% O2, 5% CO2) modified Krebs solution (g./liter: NaCl 6.6, KCl 0.35, MgSO4.7 H2 O 0.295, KH2 PO4 0.162, CaCl2 0.238, NaHCO3 2.1 and dextrose 2.09). The spontaneously beating right atrium was dissected free from other tissues and a silk thread (4-0) attached to each end. The atrium was suspended in a 20 ml. muscle chamber containing oxygenated modified Krebs solution maintained at 32° C. Atrial contractions were recorded isometrically by means of a Grass FT 0.03 force displacement transducer and recordings of contractile force and rate were made with a Beckman RP Dynograph.
A resting tension of 1 g. was applied to the atrium and it was allowed to equilibrate for 1 hour.
Concentration-response curve displacement factors were calculated as follows: [formula] […] [formula]

[2] = test system: histamine-induced gastric acid output; assay: Gastric antisecretory activity in the gastric fistula dog (histamine-induced gastric acid output); format: in vivo, dog (beagle); conditions: for Percent Inhibition Acid Output: 1.5 μMole/kg iv (BL-5949: one dog at this dose)
Experimental: Thomas type [Thomas, J. E., Proc. Soc. exp. Biol. Med., 46, 260 (1941)] stainless steel cannulae are inserted into the stomachs of beagle dogs (10-12 kg.) just orad to the pyloric gland area near the greater curvature to provide a chronic gastric fistula. Animals are allowed to recover for at least two months before any testing is done. Dogs are fasted overnight (~18 hours) with water ad lib prior to each experiment. The dogs are placed in a sling and an eight inch inside needle catheter (C. R. Baird, Inc.) with a two inch 17 gauge needle is inserted into a leg vein for purposes of drug administration. Gastric secretions are collected every 15 minutes by gravity drainage from the opened cannula. […] A modification of the procedure described by Grossman and Konturek, Gastroenterology, 66, 517 (1974) was followed. […] Each 15 minute sample of gastric juice is measured to the nearest 0.5 ml. and titratable acidity against 0.02 N NaOH (endpoint pH 7.0) is measured with an Autoburet and pH meter (radiometer).The percent inhibition of acid output is calculated as described in the pylorus ligated rat procedure.

[3] = clinical; cited from earlier work
[4] = test system: H2-receptor; conditions: cited from earlier work
[5] = test system: peptic ulcer disease; conditions: Gray et al., Lancet, 1 (8001), 4 (1977); cited from earlier work
[6] = target: T1, histamine H2-receptors; conditions: Black et al., Nature, 236, 385 (1972); cited from earlier work
[7] = test system: gastric secretion; conditions: animals and man; cited from earlier work
[8] = cited from earlier work
[9] = test system: gastric acid output; assay: Gastric antisecretory activity in the two hour pylorus ligated (Shay) rat; format: in vivo, rat (male Long Evans)
Text: The pyloric ligation procedure in the rat was designed by Shay et al., Gastroenterology, 5, 53 (1945) for the study of perforating gastric ulcers; however, as the method became known, it was also employed as a means of studying rat gastric secretion, Shay et al., Gastroenterology, 26, 906 (1954), Brodie, D. A., Am. J. Dig. Dis., 11, 231 (1966). A modification of this procedure is presently used to evaluate compounds for gastric antisecretory activity.
Male Long Evans rats, 280-300 gm., are used. The animals are placed in individual cages and fasted for 24 hours with free access to water. Under ether anesthesia, the stomach is reached through a midline incision, and a cotton-thread ligature is placed around the pylorus. […] All compounds are solubilized with one equivalent of HCl and brought to the proper volume with water. The animals are returned to their cages from which the water bottles have been removed and two hours later are sacrificed with ether. The stomach is removed and the two hour gastric collection is drained into a graduated test tube for volume determination. Titratable acidity is measured by titrating a one ml. sample to pH 7.0 with 0.02 N NaOH, using an Autoburet and an electrometric pH meter (Radiometer). […] The percent inhibition of acid output is calculated as follows [formula]

| SMILES | Histamine ED50 after test compound [1] [µg/mL] | Concentration-Response Curve Displacement Factor [1] | Percent Inhibition Acid Output [2] [%] | Toxicity (agranulocytosis) (in words) [3] | Potency as H2 antagonist (in words) [4] | Oral absorption / oral activity (in words) [8] | also measured |
| --- | --- | --- | --- | --- | --- | --- | --- |
| CNC(=NC#N)NCCSCc1nc[nH]c1C [Cimetidine] | 4.80 | 25.26 | 53 | without producing agranulocytosis | as effective an H2 antagonist as metiamide | – | Effectiveness in peptic ulcer disease (in words) [5]: an effective therapeutic agent in the treatment of peptic ulcer disease |
| CNC(=S)NCCCCc1cnc[nH]1 [Burimamide] | – | – | – | – | – | oral absorption is poor | Effect at histamine H2-receptors of guinea pig atria (in words) [6]: a competitive antagonist of these receptors; Inhibition of gastric secretion (in words) [7]: inhibits gastric secretion in animals and man |
| C#CCNC(=C[N+](=O)[O-])NCCSCc1[nH]cnc1C [BL-5949, 1-Nitro-2-(2-propynylamino)-2-{2-[(4-methyl-1H-imidazol-5-yl)methylthio]ethylamino}ethylene] | – | – | 88 | – | – | – | Potency as histamine H2-receptor antagonist (in words) ([1]; isolated guinea pig atria): more potent than either cimetidine or Compound XII; Potency relative to Compound XII ([9]; ip, rat): 3.7 times; Potency as inhibitor of gastric secretion (in words) ([9]; rats): more potent than either cimetidine or Compound XII; Potency as inhibitor of gastric secretion (in words) ([2]; dogs): more potent than either cimetidine or Compound XII; Potency relative to Compound XII ([2]; iv, dog): 3.8 times |
| CNC(=C[N+](=O)[O-])NCCSCc1nc[nH]c1C [Compound XII] | 4.30 | 17.92 | – | – | – | – | – |
| CNC(=S)NCCSCc1nc[nH]c1C [Metiamide] | – | – | – | toxicity (agranulocytosis) | more potent than burimamide | orally active in man | – |
